Results from patent publication US8008283B2, “Methods and compositions for the treatment of neuropsychiatric disorders” (Neurotherapeutics Pharma, Inc., priority 2005, dated 2011).

Columns and labels:
hippocampal slices = conditions: Pearce, Neuron 10:189, 1993; cited from earlier work
hippocampal slices, CA1 = assay: comparison of low-[Cl-]o and furosemide on blockade of high-[K+]o-induced epileptiform activity, CA1 field (Example 78); assay type: cell-based, rat
Excerpt: In all of the following experiments, [Cl^−]o was reduced by equimolar replacement of NaCl with Na^+-gluconate. Gluconate was used rather than other anion replacements for several reasons. […]; U.S. Pat. No. 5,902,732). Third, formate, acetate, and proprionate generate weak acids when employed as Cl^− substitutes and lead to a prompt fall in intracellular pH; gluconate remains extracellular and has not been reported to induce intracellular pH shifts. Fourth, for purposes of comparison we wished to use the same anion replacement that had been used in previous studies examining the effects of low-[Cl^−]o on activity-evoked changes of the ECS.
Sprague-Dawley adult rats were prepared as previously described. Briefly, transverse hippocampal slices, 400 μm thick, were cut using a vibrating cutter. Slices typically contained the entire hippocampus and subiculum. […] Normal ACSF contained (in mmol/l): 124 NaCl, 3 KCl, 1.25 NaH2PO4, 1.2 MgSO4, 26 NaHCO3, 2 CaCl2, and 10 dextrose.
Sharp-electrodes filled with 4 M potassium acetate were used for intracellular recordings from CA1 pyramidal cells. […] For stimulation of the Schaffer collateral pathway, a small monopolar electrode was placed on the surface of the slice midway between areas CA1 and CA3. […] AxoScope software (Axon Instruments Inc.) on a PC-computer was used for off-line analyses of data. […]

rats = assay: fear potentiated startle (FPS) test in rats; assay type: in vivo, rat
Procedure: Twenty-four rats received a 30 min period of habituation to the FPS apparatus. Twenty-four hours later, baseline startle amplitudes were collected. The rats were then divided into three matched groups based on baseline startle amplitudes. […] Groups 1 and 2 therefore consisted of 8 rats each, with Group 3 consisting of […]. Following baseline startle amplitude collection, 20 light/shock pairings were delivered on two sessions over two consecutive days (i.e., 10 light/shock pairings per day). […] Immediately following injections, startle amplitudes were assessed during startle alone trials and startle plus fear (light followed by startle) trials. Fear potentiated startle (light+startle amplitudes minus startle alone amplitudes) was compared between the treatment groups.
Animals were trained and tested in four identical stabilimeter devices (Med-Associates). Briefly, each rat was placed in a small Plexiglas cylinder. The floor of each stabilimeter consisted of four 6-mm-diameter stainless steel bars spaced 18 mm apart through which shock can be delivered. Cylinder movements result in displacement of an accelerometer where the resultant voltage is proportional to the velocity of the cage displacement. Startle amplitude is defined as the maximum accelerometer voltage that occurs during the first 0.25 sec after the startle stimulus is delivered. […] Each stabilimeter was enclosed in a ventilated, light-, and sound-attenuating box. All sound level measurements were made with a Precision Sound Level Meter. The noise of a ventilating fan attached to a sidewall of each wooden box produced an overall background noise level of 64 dB. The startle stimulus was a 50 ms burst of white noise (5 ms rise-decay time) generated by a white noise generator. The visual conditioned stimulus employed was illumination of a light bulb adjacent to the white noise source. The unconditioned stimulus was a 0.6 mA foot shock with duration of 0.5 sec, generated by four constant-current shockers located outside the chamber. The presentation and sequencing of all stimuli were under the control of the microcomputer.
FPS procedures consisted of 5 days of testing; during days 1 and 2 baseline startle responses were collected, days 3 and 4 light/shock pairings were delivered, day 5 testing for fear potentiated startle was conducted.
Matching: On the first two days all rats were placed in the Plexiglas cylinders and 3 min later presented with 30 startle stimuli at a 30 sec interstimulus interval.
Training: On the following 2 days, rats were placed in the Plexiglas cylinders. […] The shock was delivered during the last 0.5 sec of the 3.7 sec CSs at an average intertrial interval of 4 min (range, 3-5 min).
These initial startle stimuli were used to again habituate the rats to the acoustic startle stimuli. Thirty seconds after the last of these stimuli, each animal received 60 startle stimuli with half of the stimuli presented alone (startle alone trials) and the other half presented 3.2 sec after the onset of the 3.7 sec CS (CS-startle trials). All startle stimuli are presented at a mean 30 sec interstimulus interval, randomly varying between 20 and 40 sec.
Measures: The treatment groups were compared on the difference in startle amplitude between CS-startle and startle-alone trials (fear potentiation).
The therapeutic efficacy of several bumetanide analogs in alleviating anxiety was examined using the fear potentiated startle (FPS) test in rats as described above.

rat hippocampal slices = assay: spontaneous epileptiform burst discharges across a spectrum of in vitro models in hippocampal slices (Example 69); assay type: cell-based; conditions: for spontaneous burst discharges, CA3 and CA1: high-K+ (10 mM) medium
Procedure: Sprague-Dawley rats (males and females; 25-35 days old) were decapitated, the top of the skull was rapidly removed, and the brain chilled with ice-cold oxygenated slicing medium. […] A hemisphere of brain containing hippocampus was blocked and glued (cyanoacrylic adhesive) to the stage of a Vibroslicer (Frederick Haer, Brunsick, Me.). […] In the recording chamber, the slices were perfused with oxygenated recording medium at 34-35° C. All animal procedures were conducted in accordance with NIH and University of Washington animal care guidelines.
In most slice experiments, simultaneous extracellular field electrode recordings were obtained from CA1 and CA3 areas. A bipolar tungsten stimulating electrode was placed on the Schaffer collaterals to evoke synaptically-driven field responses in CA1. Stimuli consisted of 100-300 μsec duration pulses at an intensity of four times the population-spike threshold. After discharges were evoked by a 2 second train of such stimuli delivered at 60 Hz.

## NS(=O)(=O)c1cc(C(=O)O)c(NCc2ccco2)cc1Cl [furosemide]
Hippocampal slices
  latency of block of a component of the inhibitory currents: < 15 min
Hippocampal slices, CA1; after the spontaneous bursting had been blocked
  response to electrical stimulation of the Schaffer collaterals: elicited hyperexcited responses
Hippocampal slices, CA1; furosemide 2.5 and 5 mM, [K+]o 12 mM
  temporal sequence of effects on high-[K+]o-induced bursting, CA1 field: an initial brief period of increased amplitude of field activity, and then blockade (reversible) of spontaneous field activity
rats; compared with vehicle alone, FIG. 10
  difference score one week after treatment: higher difference score
rats; error bars large for vehicle-treated animals
  statistical difference from vehicle in difference score one week after treatment: possibly a small difference
rats; i.v. in DMSO, furosemide 100 mg/kg, bumetanide 70 mg/kg, compared with vehicle alone, FIG. 8
  difference score (startle alone - fear potentiated startle) on the test day: statistically significantly lower difference score
Rat hippocampal slices; 0-Ca++ experiments, 5 mM furosemide
  latency of block of bursting: 15 to 20 min
Rat hippocampal slices; 200-300 μM 4-aminopyridine
  spontaneous burst discharges: blocked
Rat hippocampal slices; 3 hours of perfusion with 0-Mg++ medium, one hour after addition of furosemide
  anticonvulsant resistant bursts, entorhinal cortex: blocked
Rat hippocampal slices; all experiments
  spontaneous bursting activity in both CA1 and CA3: reversibly blocked
Rat hippocampal slices; all other protocols, 2.5 mM furosemide
  latency of block of bursting: 20 to 60 min
Rat hippocampal slices; bicuculline at 50-100 μM
  spontaneous burst discharges: blocked
Rat hippocampal slices; 2.5 mM furosemide, after 15 minutes of perfusion
  spontaneous burst discharges, CA3 and CA1: increased in magnitude
Rat hippocampal slices; 2.5 mM furosemide, after 45 minutes of perfusion
  spontaneous burst discharges, CA3 and CA1: blocked in a reversible manner
Rat hippocampal slices; removal of calcium plus extracellular chelation (0-Ca++)
  spontaneous burst discharges: blocked
Rat hippocampal slices; removal of magnesium (0-Mg++), 1 hours perfusion
  spontaneous burst discharges: blocked
